Source: patent publication US11203773B2, “Designer ribosomes and methods of use thereof for incorporating non-standard amino acids into polypeptides” (Yale University, priority 2016, dated 2021)
Where two headings read alike, the source gives them in different places.

Legend:
E. coli GlyRS [1] = molecular target: T1, E. coli GlyRS (Escherichia coli, UniProt P00960); settings: aminoacylation; for kcat: 2 μM tRNA
E. coli GlyRS [2] = molecular target: T1, E. coli GlyRS; settings: adenylation; for kcat (min^−1) or RSA (^32P-ATP formed min^−1 enzyme μM^−1): 25° C., pH 7.0
Description: Adenylation of α- and β-Amino Acids Catalyzed by E. coli PheRS, GlyRS, MetRS, and GluRS. […] Briefly, assay mixtures (50 μL) assembled at 25° C. contained the requisite α- or β^3-amino acid substrate (between 5 μM and 5 mM) in 100 mM HEPES (pH 7.0) containing 100 mM KCl, 15 mM MgCl2, 2 mM ATP, 0.5 mM NaPPi, and 50 μCi [^32P]-NaPPi). Reactions were initiated upon addition of enzyme (10 nM MetRS, 10 nM PheRS, or 50 nM GlyRS; 100 nM GluRS for reactions with α-Glu or 1.13 μM GluRS for reactions with β^3-Glu), incubated for various times (10 sec to 10 min), and halted by adding a 5 μL reaction aliquot to 100 μL quenching solution (10% charcoal, 0.5% HCl). 50 μL of 200 mM NaPPi in 1.5 N HCl was then added to each quenched reaction to decrease nonspecific binding of pyrophosphate to the charcoal. Each quenched reaction was then filtered through Whatman filter paper (number 3), previously washed with washing solution (200 mM NaPPi in 1 N HCl) using a 96-well BIO-DOT® apparatus (BioRad). Each well of the apparatus was then washed four times with 200 μL aliquots of washing solution (by pipetting washing solution up and down at least 10 times per wash) to minimize nonspecific binding of pyrophosphate to charcoal. Each experimental well was paired with an analogous control well (no-enzyme control) that lacked enzyme; a single membrane contained time points for both α- and β^3-amino acid substrates and all no-enzyme controls. The membrane was allowed to dry and was protected with a sheet of Microseal B adhesive seals (Biorad) prior to exposure to a BAS Storage Phosphor screen. Screens were imaged on a Typhoon 9500FLA biomolecule imager and the signal intensity of each dot was quantified using ImageJ to determine the relative amount of [^32P]-ATP formed as a function of time (Ctime). Each raw value were corrected by subtracting the intensity of the dot corresponding to the appropriate no-enzyme control (Cblank) and the resulting corrected values of Ccorr (representing the relative amounts of ^32P-ATP formed) were plotted as a function of time to determine values of relative ^32P-ATP formed per minute. Those values were divided by the concentration of enzyme used, and the data was plotted as relative specific activity (^32P-ATP formed min^−1×μM^−1 enzyme) and fitted using Prism by performing nonlinear regression using the least squares method and Equation 1 to obtain RSA (relative specific activity) and KM values (Equation 1 and Table 2).
In Equation 1, v is the apparent relative specific activity (relative ^32P-ATP formed per minute) obtained at each substrate concentration divided by the enzyme concentration, RSA is the relative specific activity, S is the concentration of substrate, and KM is the Michaelis-Menten constant.

E. coli GlyRS [3] = molecular target: T1, E. coli GlyRS; settings: for krev (apparent rate of deacylation): deacylation of aminoacyl-tRNA, GlyRS 2 μM, 25° C.
Description: Deacylation assays. Large scale (200 μL) aminoacylation reactions were initiated using the conditions described above (iv). The reactions were allowed to proceed for 1 h at 37° C., after which each reaction mixture was phenol/chloroform extracted. In each case, the aminoacylated tRNA product was ethanol precipitated, and the buffer was exchanged using a micro Bio-Spin 6 column (BioRad) following the procedure specified by the manufacturer and 100 mM HEPES (pH 8.0) containing 100 mM KCl. The precise extent of aminoacylation was calculated using the procedure described above; the 2 μM concentration corresponds to total aminoacylated tRNA. Assays were performed at 25° C. in a 50 μL reaction with 2 μM [^32P]-aminoacyl-tRNA in 100 mM HEPES (pH 7.0) containing 100 mM KCl and 15 mM MgCl2.

[4] = system: BL21(DE3) cells expressing 040329 ribosomes along with WT ribosomes; assay: Expression of DHFR in 19/20 minimal media supplemented with amino acid (SDS-PAGE); type: cell-based, E. coli; settings: 040329 + WT ribosomes, media supplemented with 1 mM of the amino acid
Text: (§1) To evaluate the extent of in vivo β^3-amino acid incorporation, BL21 (DE3) cells were co-transformed via electroporation (vide infra) with two plasmids. […] The other plasmid encoded either the WT rrnb sequence (pLK35-rrnb), the 040329 mutant reported by Hecht (pLK35-040329.rrnb), or the P7A7 mutant (pLK35-P7A7.rrnb) identified during the puromycin sensitivity screen described above.
(§2) ii. β^3-amino acid incorporation. The subsequent protocol for in vivo β^3-amino acid incorporation employed minimal media and was adapted from procedures reported by Tirrell and Cropp (Liu, et al., Bioorg Med Chem Lett, 20:5613 (2010); Mandavi, et al., J Am Chem Soc, 135:2979 (2013)). Briefly, all 5 mL of the co-transformed cells prepared as described above were diluted into 100 mL of LB containing 50 ng/mL of kanamycin and […] of carbenicillin and grown to OD600=1.0, spun down, and then resuspended in 1/10th the original volume of 19/20 minimal media (10.5 g/L M9 salts, 0.1 mM CaCl2, 1 mM MgSO4, 1% glycerol, 100 μM of each amino acid (minus α-Phe), 25 mg/L thiamine, […] carbenicillin, 30 ng/mL kanamycin, 1 mM IPTG) supplemented with 1 mM of α-Phe or a β^3-Phe analog. Cells were grown overnight (18 h) at 37° C. while shaking (200 rpm). The cells were harvested by centrifugation (10 min at 4000×g) and resuspended in lysis buffer (50 mM NaH2PO4, 300 mM NaCl, 10 mM imidazole (pH 8.0)). Lysis was performed by sonication (Branson Sonifier 250) with 5 cycles of 20 s on, 20 s off. Lysed cells were then centrifuged for 20 min at 15000×g. The clarified cell lysate was incubated with Ni-NTA resin (Qiagen) for 1 h while gently rotating at 4° C. The Ni-NTA column was washed with lysis buffer prior to eluting proteins with elution buffer (50 mM NaH2PO4, 300 mM NaCl, 300 mM imidazole (pH 8.0)). Elutions were analyzed with SDS-PAGE to prepare material for in-gel trypsin digestions. Controls included side-by-side growths in (1) unsupplemented 19/20 minimal media, which contains only low levels of α-Phe present (negative control); (2). 19/20 minimal media supplemented with 1 mM α-Phe (positive control) and (3) and 19/20 minimal media supplemented with 1 mM β^3-Gly (negative control; β^3-aa that is not a β^3-Phe analog).

[5] = system: BL21(DE3) cells expressing P7A7 ribosomes along with WT ribosomes; assay: as above; type: cell-based, E. coli; settings: media supplemented with 1 mM of the amino acid
Text: as §1, §2

[6] = system: BL21(DE3) cells expressing only WT ribosomes; assay: as above; type: cell-based, E. coli; settings: 19/20 minimal media supplemented with 1 mM of the amino acid
Text: as §1, §2

[7] = system: DHFR position 128 translated in E. coli BL21 (DE3); assay: Spectral counting (LC-MS/MS of tryptic peptides) of β3-(p-Br)Phe and α-Phe incorporation into DHFR in vivo; type: cell-based; settings: cells expressing 040329 ribosomes
Text: as §1
as §2, with “19/20 minimal media supplemented with 1 mM α-Phe (positive control) and (3) and 19/20 minimal media supplemented with 1 mM β^3-Gly (negative control; β^3-aa that is not a β^3-Phe analog).” left out

[8] = system: E. coli strains (BL21 (DE3)) with pUC18 rrnb plasmids; assay: Screen of erythromycin-resistant library for sensitivity to β3-puromycin (growth inhibition, OD600); type: cell-based; settings: 250 μM β^3-puromycin, E. coli with pUC18 plasmid encoding WT rrnb
Description: (§3) To screen the resulting E. coli strains for antibiotic resistance, 2 μL of the 15% glycerol stocks prepared above were added to 98 μL of growth assay buffer (LB media (pH 8.35), 100 μg/mL carbenicillin, 1.0 mM IPTG, 6.8 μM erythromycin) in 384-well plates (Corning #3707). […] After 16-18 h, the extent of cell growth inhibition in the presence of antibiotic was determined by measuring the OD600 of each well using a SpectraMax M5 plate reader (Molecular Devices). The antibiotic-dependent inhibition of cell growth in each well was determined using Equation 4: [100−(OD600+A/OD600−A)×100] Equation 4 In this equation, OD600+A represents OD600 of wells containing antibiotic and OD600−A represents OD600 of wells lacking antibiotic.
The 1986 erythromycin-resistant clones identified above were then screened for sensitivity to β^3-puromycin sensitivity as described above, except that 250 μM β^3-puromycin was substituted for erythromycin.

[9] = system: E. coli strains (BL21 (DE3)) with pUC18 rrnb plasmids; assay: Screen of library for sensitivity to erythromycin (growth inhibition, OD600); type: cell-based; settings: 6.8 μM erythromycin, E. coli with pUC18 plasmid encoding WT rrnb, 16-18 h
Description: as §3

T1 sequence (P00960 whole entry): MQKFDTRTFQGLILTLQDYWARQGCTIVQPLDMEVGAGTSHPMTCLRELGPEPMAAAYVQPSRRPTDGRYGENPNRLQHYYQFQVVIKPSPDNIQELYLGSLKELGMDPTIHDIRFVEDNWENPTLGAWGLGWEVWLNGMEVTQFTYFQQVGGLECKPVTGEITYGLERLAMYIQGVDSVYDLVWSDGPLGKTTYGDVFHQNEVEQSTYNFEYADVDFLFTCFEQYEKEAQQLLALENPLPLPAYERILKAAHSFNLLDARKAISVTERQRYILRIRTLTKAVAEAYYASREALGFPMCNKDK
T1 sequence (P00961 whole entry, further chain): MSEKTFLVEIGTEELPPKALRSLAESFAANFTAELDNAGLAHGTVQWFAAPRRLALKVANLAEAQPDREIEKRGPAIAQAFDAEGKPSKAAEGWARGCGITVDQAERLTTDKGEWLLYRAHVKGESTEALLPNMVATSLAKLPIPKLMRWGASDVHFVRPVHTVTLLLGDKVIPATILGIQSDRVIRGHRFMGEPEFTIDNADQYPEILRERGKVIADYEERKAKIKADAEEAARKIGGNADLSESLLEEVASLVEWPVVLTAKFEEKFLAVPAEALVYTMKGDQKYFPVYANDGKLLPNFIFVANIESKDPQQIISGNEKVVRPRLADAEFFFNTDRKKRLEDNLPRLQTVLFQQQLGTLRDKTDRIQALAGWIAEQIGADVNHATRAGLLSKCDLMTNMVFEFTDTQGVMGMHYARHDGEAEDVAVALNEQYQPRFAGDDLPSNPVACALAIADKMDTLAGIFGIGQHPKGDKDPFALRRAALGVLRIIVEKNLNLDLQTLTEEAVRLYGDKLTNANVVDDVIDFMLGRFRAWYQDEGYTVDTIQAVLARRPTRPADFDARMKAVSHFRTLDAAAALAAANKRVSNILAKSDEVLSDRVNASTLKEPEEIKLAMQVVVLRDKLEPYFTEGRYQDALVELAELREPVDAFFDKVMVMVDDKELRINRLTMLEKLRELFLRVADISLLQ

SMILES: NCC(=O)O [α-Gly, Glycine]
- Km (E. coli GlyRS [1]): 13.4 ± 4.7 µM
- Ratio (α/β) of KM (E. coli GlyRS [1]): 1.2 ± 1.00
- Ratio (α/β) of kcat (E. coli GlyRS [1]): 1.9 ± 1.0
- Ratio (α/β) of kcat/KM (E. coli GlyRS [1]): 1.5 ± 0.7
- kcat (E. coli GlyRS [1]): 0.0967 ± 0.0083 s⁻¹
- Km (E. coli GlyRS [2]): 9.8 ± 3.5 µM
- Ratio (α-/β-) of KM (E. coli GlyRS [2]): 0.14 ± 0.11
- Ratio (α-/β-) of RSA (E. coli GlyRS [2]): 1.14 ± 0.24
- Ratio (α-/β-) of kcat/KM (E. coli GlyRS [2]): 7.97 ± 6.46
- kcat (min^−1) or RSA (^32P-ATP formed min^−1 enzyme μM^−1) (E. coli GlyRS [2]): 166.8 ± 12.8 ^32P-ATP formed min^−1 enzyme μM^−1
- krev (apparent rate of deacylation) (E. coli GlyRS [3]): 0.21 ± 0.08 min⁻¹
- Ratio (α/β) of krev (E. coli GlyRS [3]; deacylation, GlyRS): 0.3 ± 0.1

SMILES: NCCC(=O)O [β-Gly, β^3-glycine]
- Km (E. coli GlyRS [1]): 11.1 ± 2.8 µM
- kcat (E. coli GlyRS [1]): 0.0517 ± 0.0017 s⁻¹
- level of DHFR [4]: significant levels
- level of DHFR [5]: lower levels
- amount of DHFR generated [6]: trace amounts
- incorporation at position 128 of DHFR (LC-MS/MS) [7]: no evidence
- Km (E. coli GlyRS [2]): 68.4 ± 47.3 µM
- kcat (min^−1) or RSA (^32P-ATP formed min^−1 enzyme μM^−1) (E. coli GlyRS [2]): 146.4 ± 29.2 ^32P-ATP formed min^−1 enzyme μM^−1
- krev (apparent rate of deacylation) (E. coli GlyRS [3]): 0.71 ± 0.09 min⁻¹

SMILES: COc1ccc(CC(N)CC(=O)NC2C(CO)OC(n3cnc4c(N(C)C)ncnc43)C2O)cc1 (stereo not drawn) [β^3-puromycin]
- growth inhibition [8]: lack of growth inhibition

SMILES: CC[C@H]1OC(=O)[C@H](C)[C@@H](O[C@H]2C[C@@](C)(OC)[C@@H](O)[C@H](C)O2)[C@H](C)[C@@H](O[C@@H]2O[C@H](C)C[C@H](N(C)C)[C@H]2O)[C@](C)(O)C[C@@H](C)C(=O)[C@H](C)[C@@H](O)[C@]1(C)O [erythromycin]
- growth inhibition [9]: full growth inhibition
